“Also recorded” adds a separate entry of the source.

One data set relates to hippocampal neurons. Put plainly: Primary and secondary dendrite number in cultured hippocampal neurons. The class given is cell-based, rat. The source says:
In this example, the effects of overexpression of NOS1AP protein in neurons were examined using primary cultures of hippocampal neurons. cDNAs encoding the full-length NOS1AP protein (SEQ ID No. 2) and NOS1AP-S protein (SEQ ID No. 4) were separately cloned into expression vectors and transfected along with GFP (to elucidate neuronal morphology) at 10 days in vitro, a time when dendrite outgrowth and branching is rapidly occurring. It was hypothesized that NOS1AP may affect dendrite number since the NMDA receptor has been implicated in playing a role in regulating dendrite number, and overexpression of NOS1AP is thought to disrupt NMDA receptor signaling. Two days after transfection, the neurons were fixed, and dedrites were counted as described in Akum et al., Nat Neurosci 2004 February; 7(2):145-52, 2004 and Chen et al., Mol Biol Cell 2005 November; 16(11):5103-14. […] Since dendrite morphology is crucial to interneuronal communication, the increases in short-form NOS1AP protein seen in patients suffering from neuropsychiatric disorders, such as schizophrenia and bipolar disorders, may result in altered dendrite morphology in the hippocampus, and perhaps the DLPFC.
Neuronal cultures were prepared from hippocampi of rat embryos at 18 day gestation as described previously (Firestein et al., 1999). The hippocampi were dissociated, and cells were plated on poly-D-lysine-coated glass coverslips (12 mm diameter) at a density of 1800 cells/mm^2. Cultures were maintained in Neurobasal media supplemented with B27, penicillin, streptomycin, and L-glutamine. Cells were grown for 5-21 days in vitro (DIV) and used for specific experiments as indicated below.
cDNAs encoding human NOS1AP and several mutant forms of human NOS1AP were cloned into the expression vector pCMV6-XL4 (Origene). These plasmids are referred to directly as NOS1AP (or NOS1AP mutants) without indicating the vector. In addition, the fusion proteins GFP-NOS1AP-L (GFP-NPL), GFP-NOS1AP-S (GFP-NPS), and GFP-NOS1AP-181-307 (GFP-NOS1AP-M, GFP-NPM) were constructed in the pEGFP-C1 vector (Clontech Inc.). Cultured hippocampal neurons were transfected with the appropriate cDNA constructs as follows. Neurons were transfected on DIV 10 using […] following the manufacturer's protocol (Qiagen Inc.). Neurons were transfected on DIV 2, 5, or 7 using LIPOFECTAMINE-2000 following the manufacturer's protocol (Invitrogen Inc.). The Amaxa Nucleofector kit for Rat Neurons (Amaxa Inc., kit VPG-1003) was used to transfect newly dissected neurons (DIV 0) before plating.
Neurons were fixed in 4% paraformaldehyde in PBS for 30 minutes and then incubated in blocking solution (PBS containing 0.1% Triton X-100, 2% normal goat serum, and 0.02% sodium azide) for 1 h. All antibodies used were diluted in blocking solution. For GFP and NOS1AP or GFP and HA double immunostaining, dilutions of 1:1000 for rat anti-GFP and 1:500 for rabbit anti-NOS1AP, or 1:500 for goat anti-NOS1AP, or 1:1000 for mouse anti-HA (CRP Inc.) were used. […] Labeled cells were visualized by immunofluorescence on an Olympus Optical (Tokyo, Japan) IX50 microscope with a Cooke Sensicam charge-coupled device cooled camera fluorescence imaging system and Image Pro software (Media Cybernetics, Silver Spring, Md.).
Primary and secondary dendrite numbers were counted by hand with the experimenter blinded to the conditions (Akum et al., 2004). Pictures of neurons were contrast-enhanced and the numbers of primary and secondary dendrites for each neuron were recorded. […]

Another data set deals with NOS1AP. Description: Knockdown of endogenous NOS1AP protein, immunofluorescence intensity in primary dendrites. The class given is cell-based, rat. Conditions: hippocampal neurons transfected DIV 10, fixed DIV 12 (48 hours). From the text:
A) Hippocampal neurons were transfected with either pSUPER-scramble shRNA or pSUPER-NOS1AP shRNA at DIV10 and fixed at DIV12. B) Quantification of primary dendrites shown. C) Hippocampal neurons transfected with the same vectors as in A at DIV10 and fixed and immunostained for NOS1AP at DIV12. Zoomed inset indicates a representative region of primary dendrite showing corresponding fluorescence intensities of anti-NOS1AP. D) Quantification of NOS1AP levels in primary dendrite regions, as represented by normalized (total intensity/area) fluorescence intensity levels. *p<0.05 by Student's t-test.
A shRNA was constructed to knock down NOS1AP-L with the sequence 5′-[…]-3′ (SEQ ID NO: 22; position 790 of NM_138922) using the pSUPER vector. The resulting siRNA is specific to the long isoform of NOS1AP. […] Importantly, primary dendrite number increases by 67% when NOS1AP is knocked down (FIGS. 16A and B).

For the compound `N[C@@H](CCCP(=O)(O)O)C(=O)O` [APV], the “additional decrease in dendrite branching” value in the data set on hippocampal neurons (NOS1AP-L transfected neurons treated with APV) was “does not result in any additional decrease”. The “drop in primary dendrite branching” value in the data set on hippocampal neurons (control cells transfected with GFP alone, dosage of APV expected to fully block NMDA receptor function) is “approximately 25%”.
With `COC(=O)[C@@H](N)CCCNC(=N)N[N+](=O)[O-]` [L-NAME, N(ω)-nitro-L-arginine-methyl ester], the “difference in secondary dendrite number, NOS1AP-Long alone vs with L-NAME” value with hippocampal neurons (500 μM L-NAME, FIG. 10C) is “smaller, yet the distinction was still clear”. The “effect on NOS1AP-Long effects on dendrite branching” value in the data set on hippocampal neurons (L-NAME 500 μM (FIG. 10 legend prints 500 nM) added right after transfection DIV 10, fixed DIV 12) is “partial reduction of NOS1AP-Long effects; also recorded: reduced NOS1AP-Long (CP-L) activity”.
As to “shRNA against NOS1AP-L: shRNA to knock down NOS1AP-L, sequence 5′-GCAATATCTTCAGATGCAA-3′ (SEQ ID NO: 22), in the pSUPER vector”, the “increase in primary dendrite number” value in the data set on hippocampal neurons (NOS1AP knocked down, DIV 10-12, 48 hours, vs scramble shRNA) turned out to be 67%. Also, the results for the “decrease in NOS1AP expression (knockdown of endogenous NOS1AP protein)” value in the data set with NOS1AP, with NOS1AP (listed as SEQ ID NO: 22) and with NOS1AP (listed as shRNA Against NOS1AP Coding Sequence (Position 398)) were 40%, 40% and “Approximately 45%”, respectively.

Source of the values: patent US8110348B2, “Methods and compositions for the diagnosis and treatment of schizophrenia” (priority 2005, dated 2012).
